Measurements: ChEMBL document CHEMBL1201862, “PubChem BioAssay data set” (2004)
Activity calls are given as the source filed them.

Assays:
Assay type in all cases: functional
[1] = molecular target: Dual specificity protein kinase CLK2 (Homo sapiens, UniProt P49760)
[2] = molecular target: Tyrosine-protein kinase BTK (Homo sapiens, UniProt Q06187)
[3] = molecular target: T1, Tyrosine-protein kinase JAK3 (Homo sapiens, UniProt P52333)
T1 sequence (P52333 whole entry): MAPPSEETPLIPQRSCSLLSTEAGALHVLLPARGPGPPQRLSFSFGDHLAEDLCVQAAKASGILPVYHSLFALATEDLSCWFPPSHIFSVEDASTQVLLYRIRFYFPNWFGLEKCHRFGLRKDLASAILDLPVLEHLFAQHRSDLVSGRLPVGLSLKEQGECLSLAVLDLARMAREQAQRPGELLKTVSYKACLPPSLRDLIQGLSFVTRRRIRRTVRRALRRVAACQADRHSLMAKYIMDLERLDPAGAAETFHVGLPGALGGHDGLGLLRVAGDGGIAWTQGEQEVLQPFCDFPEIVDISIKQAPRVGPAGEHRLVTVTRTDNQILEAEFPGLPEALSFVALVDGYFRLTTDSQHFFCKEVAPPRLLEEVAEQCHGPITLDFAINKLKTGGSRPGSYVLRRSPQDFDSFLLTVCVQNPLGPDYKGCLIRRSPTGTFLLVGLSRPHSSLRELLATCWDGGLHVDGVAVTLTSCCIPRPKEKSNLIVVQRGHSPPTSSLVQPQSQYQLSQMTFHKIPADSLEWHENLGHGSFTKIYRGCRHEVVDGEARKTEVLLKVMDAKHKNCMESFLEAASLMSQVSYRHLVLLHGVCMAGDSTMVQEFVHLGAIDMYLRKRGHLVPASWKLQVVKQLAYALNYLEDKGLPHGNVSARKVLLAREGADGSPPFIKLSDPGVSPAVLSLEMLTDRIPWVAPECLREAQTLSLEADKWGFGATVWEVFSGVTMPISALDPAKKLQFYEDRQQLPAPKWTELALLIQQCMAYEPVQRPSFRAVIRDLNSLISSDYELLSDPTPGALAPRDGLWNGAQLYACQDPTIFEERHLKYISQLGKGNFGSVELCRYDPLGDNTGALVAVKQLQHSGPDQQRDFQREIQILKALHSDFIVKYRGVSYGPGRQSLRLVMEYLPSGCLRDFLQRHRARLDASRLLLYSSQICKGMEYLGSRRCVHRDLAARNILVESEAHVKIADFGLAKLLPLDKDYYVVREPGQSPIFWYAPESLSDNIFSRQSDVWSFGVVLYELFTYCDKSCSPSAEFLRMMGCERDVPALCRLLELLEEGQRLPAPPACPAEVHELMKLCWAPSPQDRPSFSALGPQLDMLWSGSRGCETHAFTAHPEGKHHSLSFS

[4] = molecular target: T2, Serine/threonine-protein kinase Chk1 (Homo sapiens, UniProt O14757);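 further: measured as one member of a kinome-wide kinase profiling panel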
T2 sequence (O14757 whole entry): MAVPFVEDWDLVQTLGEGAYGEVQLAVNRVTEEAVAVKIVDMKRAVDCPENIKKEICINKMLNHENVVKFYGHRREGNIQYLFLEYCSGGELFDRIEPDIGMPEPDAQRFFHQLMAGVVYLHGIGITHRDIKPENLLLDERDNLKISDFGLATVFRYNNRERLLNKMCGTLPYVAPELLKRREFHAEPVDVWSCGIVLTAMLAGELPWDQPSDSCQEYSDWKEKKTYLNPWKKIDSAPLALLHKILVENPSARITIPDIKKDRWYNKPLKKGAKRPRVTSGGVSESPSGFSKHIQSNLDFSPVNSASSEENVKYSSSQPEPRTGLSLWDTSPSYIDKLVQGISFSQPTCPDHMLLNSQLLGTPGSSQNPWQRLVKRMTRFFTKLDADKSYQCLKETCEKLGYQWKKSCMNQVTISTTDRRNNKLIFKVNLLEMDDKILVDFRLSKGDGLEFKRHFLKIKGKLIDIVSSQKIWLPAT

[5] = molecular target: T3, cAMP-dependent protein kinase catalytic subunit PRKX (Homo sapiens, UniProt P51817)
T3 sequence (P51817 whole entry): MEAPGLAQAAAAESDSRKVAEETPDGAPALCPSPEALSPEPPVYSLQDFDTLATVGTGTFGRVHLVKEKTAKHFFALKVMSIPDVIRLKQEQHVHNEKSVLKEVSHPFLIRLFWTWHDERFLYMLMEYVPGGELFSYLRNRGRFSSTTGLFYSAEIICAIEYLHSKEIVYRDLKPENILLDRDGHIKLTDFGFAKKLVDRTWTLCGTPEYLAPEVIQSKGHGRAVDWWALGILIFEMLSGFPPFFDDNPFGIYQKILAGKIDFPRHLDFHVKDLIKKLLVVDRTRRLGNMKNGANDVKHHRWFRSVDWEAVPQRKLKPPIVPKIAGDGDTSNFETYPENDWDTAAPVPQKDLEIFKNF

[6] = molecular target: Aurora kinase B (Homo sapiens, UniProt Q96GD4)
Sequence of Aurora kinase B (Q96GD4 whole entry): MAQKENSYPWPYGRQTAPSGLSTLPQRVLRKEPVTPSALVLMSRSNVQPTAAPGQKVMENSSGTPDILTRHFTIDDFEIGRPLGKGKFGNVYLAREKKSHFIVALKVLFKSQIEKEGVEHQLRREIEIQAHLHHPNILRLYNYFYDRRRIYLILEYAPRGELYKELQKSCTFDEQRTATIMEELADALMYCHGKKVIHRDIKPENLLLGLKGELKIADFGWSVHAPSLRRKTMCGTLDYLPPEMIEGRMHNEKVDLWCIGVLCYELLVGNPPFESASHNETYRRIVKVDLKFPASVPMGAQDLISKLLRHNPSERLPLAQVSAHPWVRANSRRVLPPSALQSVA

[7] = molecular target: T4, Serine/threonine-protein kinase Nek2 (Homo sapiens, UniProt P51955)
T4 sequence (P51955 whole entry): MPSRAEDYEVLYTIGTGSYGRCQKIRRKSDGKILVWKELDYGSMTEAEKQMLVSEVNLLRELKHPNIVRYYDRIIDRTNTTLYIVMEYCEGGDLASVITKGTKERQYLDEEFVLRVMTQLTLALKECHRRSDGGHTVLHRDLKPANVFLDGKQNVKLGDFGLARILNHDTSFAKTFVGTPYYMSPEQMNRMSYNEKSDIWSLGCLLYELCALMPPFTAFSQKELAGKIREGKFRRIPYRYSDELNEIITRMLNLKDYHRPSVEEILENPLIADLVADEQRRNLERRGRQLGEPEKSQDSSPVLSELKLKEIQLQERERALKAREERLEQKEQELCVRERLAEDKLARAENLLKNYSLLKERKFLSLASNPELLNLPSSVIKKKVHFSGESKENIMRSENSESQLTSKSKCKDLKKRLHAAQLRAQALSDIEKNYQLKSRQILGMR

[8] = molecular target: Dual specificity protein kinase CLK4 (Homo sapiens, UniProt Q9HAZ1)
Sequence of Dual specificity protein kinase CLK4 (Q9HAZ1 whole entry): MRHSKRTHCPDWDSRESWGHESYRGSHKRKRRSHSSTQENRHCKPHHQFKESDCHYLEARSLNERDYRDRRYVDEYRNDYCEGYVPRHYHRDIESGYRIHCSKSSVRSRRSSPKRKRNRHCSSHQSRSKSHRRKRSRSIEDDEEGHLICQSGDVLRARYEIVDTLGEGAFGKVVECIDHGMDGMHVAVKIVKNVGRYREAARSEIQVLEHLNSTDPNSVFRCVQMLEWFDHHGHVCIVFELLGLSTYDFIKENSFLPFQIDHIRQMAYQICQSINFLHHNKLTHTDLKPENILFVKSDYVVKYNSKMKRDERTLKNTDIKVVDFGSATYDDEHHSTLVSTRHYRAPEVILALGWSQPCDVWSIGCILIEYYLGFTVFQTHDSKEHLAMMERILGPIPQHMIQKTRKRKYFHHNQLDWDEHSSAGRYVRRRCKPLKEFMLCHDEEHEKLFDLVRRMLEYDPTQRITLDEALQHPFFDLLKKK

[9] = molecular target: Leukocyte tyrosine kinase receptor (Homo sapiens, UniProt P29376); test: Navigating the Kinome. Panel member name: LTK
Sequence of Leukocyte tyrosine kinase receptor (P29376 whole entry): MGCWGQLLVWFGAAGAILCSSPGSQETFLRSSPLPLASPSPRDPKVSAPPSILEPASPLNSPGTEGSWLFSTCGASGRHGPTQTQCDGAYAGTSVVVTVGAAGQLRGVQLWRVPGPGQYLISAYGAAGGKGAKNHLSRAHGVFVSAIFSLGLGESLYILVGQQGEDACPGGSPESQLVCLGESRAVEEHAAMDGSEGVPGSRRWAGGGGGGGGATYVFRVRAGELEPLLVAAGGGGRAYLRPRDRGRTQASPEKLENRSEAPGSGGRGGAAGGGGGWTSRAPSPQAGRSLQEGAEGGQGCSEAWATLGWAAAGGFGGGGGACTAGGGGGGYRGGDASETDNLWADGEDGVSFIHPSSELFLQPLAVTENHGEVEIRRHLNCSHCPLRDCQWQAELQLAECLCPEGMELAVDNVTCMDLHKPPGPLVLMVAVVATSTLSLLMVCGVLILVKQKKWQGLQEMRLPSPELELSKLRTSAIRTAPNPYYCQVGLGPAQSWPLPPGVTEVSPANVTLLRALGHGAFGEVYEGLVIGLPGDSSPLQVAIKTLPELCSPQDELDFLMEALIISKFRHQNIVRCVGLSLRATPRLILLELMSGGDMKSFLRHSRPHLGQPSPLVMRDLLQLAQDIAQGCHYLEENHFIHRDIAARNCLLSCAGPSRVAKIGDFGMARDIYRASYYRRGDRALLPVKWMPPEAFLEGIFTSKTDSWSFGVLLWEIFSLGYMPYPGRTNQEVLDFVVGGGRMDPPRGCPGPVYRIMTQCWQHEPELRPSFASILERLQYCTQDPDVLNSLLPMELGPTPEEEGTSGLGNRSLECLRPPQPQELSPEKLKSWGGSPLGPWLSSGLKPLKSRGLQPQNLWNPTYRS

Sequence of Tyrosine-protein kinase BTK (Q06187 whole entry): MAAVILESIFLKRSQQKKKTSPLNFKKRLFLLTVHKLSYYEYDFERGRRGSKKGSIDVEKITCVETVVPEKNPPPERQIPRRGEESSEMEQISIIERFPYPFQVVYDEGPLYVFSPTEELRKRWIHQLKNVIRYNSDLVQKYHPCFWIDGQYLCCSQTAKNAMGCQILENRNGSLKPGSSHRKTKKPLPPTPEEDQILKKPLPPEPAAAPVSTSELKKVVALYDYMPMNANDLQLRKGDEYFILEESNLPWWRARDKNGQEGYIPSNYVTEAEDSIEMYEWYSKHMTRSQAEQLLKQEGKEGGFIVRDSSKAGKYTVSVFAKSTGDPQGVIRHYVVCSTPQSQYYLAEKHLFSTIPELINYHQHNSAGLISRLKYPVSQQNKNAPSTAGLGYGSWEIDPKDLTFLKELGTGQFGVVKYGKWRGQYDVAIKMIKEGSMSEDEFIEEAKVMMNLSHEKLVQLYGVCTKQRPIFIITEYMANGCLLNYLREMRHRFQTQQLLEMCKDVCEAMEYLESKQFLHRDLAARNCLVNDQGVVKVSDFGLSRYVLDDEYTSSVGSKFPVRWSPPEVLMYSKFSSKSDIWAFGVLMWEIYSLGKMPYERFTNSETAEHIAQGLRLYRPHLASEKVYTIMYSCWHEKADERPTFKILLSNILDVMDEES
Sequence of Dual specificity protein kinase CLK2 (P49760 whole entry): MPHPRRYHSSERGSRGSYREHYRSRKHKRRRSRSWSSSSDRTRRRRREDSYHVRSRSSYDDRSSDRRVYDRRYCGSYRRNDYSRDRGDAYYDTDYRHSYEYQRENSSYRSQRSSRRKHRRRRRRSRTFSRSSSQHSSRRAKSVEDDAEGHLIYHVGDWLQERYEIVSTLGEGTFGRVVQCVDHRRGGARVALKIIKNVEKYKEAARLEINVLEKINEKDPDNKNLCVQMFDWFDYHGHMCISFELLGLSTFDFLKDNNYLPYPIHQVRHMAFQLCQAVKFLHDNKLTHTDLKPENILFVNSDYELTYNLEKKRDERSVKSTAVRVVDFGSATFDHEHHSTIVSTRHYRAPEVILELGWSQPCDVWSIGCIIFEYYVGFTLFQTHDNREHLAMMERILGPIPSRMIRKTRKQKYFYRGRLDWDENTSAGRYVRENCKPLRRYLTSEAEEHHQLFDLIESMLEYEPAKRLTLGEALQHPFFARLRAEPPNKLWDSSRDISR

In the case of CN1CCC(c2c(O)cc(O)c3c(=O)cc(-c4ccccc4Cl)oc23)C(O)C1 (configuration not stated), the Ki [1] was > 3160 nM (inactive), the Ki [2] was > 3980 nM (inactive) and the Ki [3] was > 3980 nM (inactive). For the same molecule, the Ki [4] was > 6310 nM (inactive), the Ki [5] was > 3160 nM (inactive) and the Ki [6] was > 5010 nM (inactive). For the same molecule, the Ki [7] was > 6310 nM (inactive), the Ki [8] was 1260 nM (active) and the Ki [9] was 631 nM (active).
Cc1ccc(C)c(NC(=O)c2cc(-c3ccco3)nc3ccccc23)c1 was tested, and the Ki [1] was > 3980 nM (inactive), the Ki [2] was 3980 nM (active) and the Ki [3] was > 5010 nM (inactive). The Ki [4] was 316 nM (active), the Ki [5] was 1000 nM (active) and the Ki [6] was 3160 nM (active). For the same molecule, the Ki [7] was 1260 nM (active), the Ki [8] was 398 nM (active) and the Ki [9] was 1000 nM (active).
In the case of COc1ccc(C2=NNc3cccc4c(OC)ccc2c34)cc1OC, the Ki [1] was 316 nM (active), the Ki [2] was 631 nM (active) and the Ki [3] was 251 nM (active). For the same molecule, the Ki [4] was 31.6 nM (active), the Ki [5] was 398 nM (active) and the Ki [6] was > 3980 nM (inactive). The Ki [7] was 200 nM (active), the Ki [8] was 63.1 nM (active) and the Ki [9] was 25.1 nM (active).
